Reference: patent US12678451B2, “Cannabinoid and omega fatty acid compositions and methods of using” (GreenWay Herbal Products, LLC, priority 2019, dated 2026)

What was measured:
[1] = system: cytokines induced in mice by LPS; test: Mouse LPS cytokine model, Example 6C Study 1, omega fatty acids with or without 0.5 mg/kg 1:1 CBD:CBDA; type: in vivo; conditions: 0.5 mg/kg (0.01 mg per mouse)
Method: (§1) A series of experiments using a mouse LPS cytokine animal model were performed. In the mouse LPS cytokine animal model, mice were injected with LPS, which induced the immune response shortly after the mice were injected with one of the potential anti-inflammatory compounds under evaluation (the “test compound”). The efficacy of the test compound was evaluated based on its ability to reduce expression levels of inflammatory cytokines that were elevated due to the immune response. The test compounds included a cannabinoid, an omega fatty acid, and a cannabinoid-omega fatty acid composition.
(§2) The mice were intraperitoneally injected with 0.1 mL of the test compound. One hour later, the mice were intraperitoneally injected with 0.1 mL of LPS in phosphate buffered saline (PBS). Four hours later, a heart puncture was performed and the blood was allowed to clot to generate serum. 0.1 mL of the serum was diluted 1:2 with PBS and stored at −80° C. The serum was then sent to a laboratory where a mouse cytokine array/chemokine array 31-plex (MD31) analysis was performed that analyzed the expression levels of the 32 cytokines/chemokines listed in Table 9, above.
(§3) For each considered test compound, the ability of the test compound to suppress each inflammatory cytokine was calculated by determining the percent suppression.
(§4) In this study, the effects of combining 1:1 CBD:CBDA with anti-inflammatory omega unsaturated fatty acids using the mouse LPS cytokine animal model were examined.
32 female C57BL/6 mice that weighed approximately 20 g each were allowed to acclimate for one week with unlimited access to food and water. On the day of the study, the mice were weighed and split into eight groups of four mice each so that the average weight of each group was as close as possible to each other.
(§5) Because the purpose of this experiment was to evaluate the effectiveness of combining 1:1 CBD:CBDA and the anti-inflammatory omega fatty acids, only cytokines that could be suppressed by one of the anti-inflammatory agents used in this study were considered.

[2] = system: cytokines induced in mice by LPS; test: Mouse LPS cytokine model, Example 6C Study 3, omega fatty acids with or without 0.25 mg/kg 1:1 CBD:CBDA; type: in vivo
Method: as §1, §2, §3, §4
40 female C57BL/6 mice that weighed approximately 20 g each were allowed to acclimate for one week with unlimited access to food and water. On the day of the study, the mice were weighed and split into ten groups of four mice each so that the average weight of each group was as close as possible to each other. […] (9) LPS plus 37.50 mg omega fatty acids (0.1 mL injection of 375.00 mg/mL omega fatty acids diluted in MCT oil, followed 1 hour later by a 0.1 mL injection of LPS in PBS); and (10) LPS plus 37.50 mg omega fatty acids/0.005 mg 1:1 CBD:CBDA (0.1 mL injection of 375.00 mg/mL omega fatty acids/0.05 mg/mL 1:1 CBD:CBDA diluted in MCT oil, followed 1 hour later by a 0.1 mL injection of LPS in PBS).
as §5, with “24 out of the 32 analyzed cytokines were induced two-fold by LPS. Because” for “Because”, “considered. 24 out of the 24 cytokines whose expression level was induced-two fold or greater by LPS met these criteria.” for “considered.”

[3] = system: cytokine levels in differentiated THP-1 cells treated with LPS; test: THP-1 human cellular LPS cytokine assay, three independent experiments, total averaged suppression; conditions: Homo sapiens, THP-1, 4 h, read-out: % Cytokine Suppression (total averaged)
Method: Cells were seeded onto 24-, or 12-well plates and incubated for 48 hours to 72 hours to allow for differentiation. […] Supernatants were collected for quantification of human cytokine levels to assess the cytokine response. Cells remaining after the supernatant collection were tested to ensure they had at least 90% viability as determined by Alamar Blue assays. To conduct the Alamar Blue assays, supernatants were replaced with culture medium containing 1× Alamar Blue reagent and incubated overnight. Cell viability was assessed by measuring relative fluorescent units (RFU) on the SpectraMax M2e microplate reader (Molecular Devices Inc., Sunnyvale, Calif., USA) at Excitation 560 nm and Emission 590 nm. Controls included untreated cells with DMSO at the same concentration as the treated cells, LPS stimulated cells with DMSO at the same concentration as the treated cells and LPS stimulated cell with the various treatments. The levels of 42 of the most common human cytokines (Eve Technologies, Calgary, Canada Table 6) were determined by multi-plex analysis.
For this reason, the level of cytokine suppression was determined for each cytokine by each cannabinoid that was tested and the total averaged suppression for each cannabinoid was determined by dividing the total suppression by the number of the cytokines that were analyzed.

[4] = 0.01 mg dexamethasone in MCT oil

For `C[C@@H]1C[C@H]2[C@@H]3CCC4=CC(=O)C=C[C@]4(C)[C@@]3(F)[C@@H](O)C[C@]2(C)[C@@]1(O)C(=O)CO` [Dexamethasone, dexamethasone], the “AVERAGE SUPPRESSION” value [1] was 20.66%, the IFNγ suppression [1] was −41.63% and the IL-1β suppression [1] was 19.75%. The IL-6 suppression [1] was 64.76%, the IL-10 suppression [1] was 19.59% and the “IL-12 p70 suppression” value [1] was 10.64%. For the same compound, the “IL-12β p40 suppression” value [1] was 39.02%, the IL-15 suppression [1] was 26.30% and the IL-17 suppression [1] was 49.77%. The IP-10 suppression [1] was 24.44%, the KC suppression [1] was 40.63% and the LIF suppression [1] was 29.55%. The MCP-1 suppression [1] was 26.32%, the MIG suppression [1] was 3.78% and the MIP-1α suppression [1] was 26.86%. It also gave an MIP-1β suppression [1] of 5.51%, an MIP-2 suppression [1] of 34.16% and an RANTES suppression [1] of −13.70%. The TNF-α suppression [1] was 26.92%, the “Percent suppression of elevated cytokine levels, Eotaxin” value [2, 4] was 7.26% and the “Percent suppression of elevated cytokine levels, IFNγ” value [2, 4] was 44.52%. For the same compound, the “Percent suppression of elevated cytokine levels, IL-1β” value [2, 4] was 35.53%, the “Percent suppression of elevated cytokine levels, IL-2” value [2, 4] was −9.46% and the “Percent suppression of elevated cytokine levels, IL-6” value [2, 4] was 85.95%. The “Percent suppression of elevated cytokine levels, IL-7” value [2, 4] was 96.66%, the “Percent suppression of elevated cytokine levels, IL-10” value [2, 4] was 57.41% and the “Percent suppression of elevated cytokine levels, IL-12β p40” value [2, 4] was 54.79%. For the same compound, the “Percent suppression of elevated cytokine levels, IL-12β p70” value [2, 4] was −51.07%, the “Percent suppression of elevated cytokine levels, IL-13” value [2, 4] was 11.39% and the “Percent suppression of elevated cytokine levels, IL-15” value [2, 4] was −13.42%. The “Percent suppression of elevated cytokine levels, IL-17” value [2, 4] was 63.75%, the “Percent suppression of elevated cytokine levels, IP-10” value [2, 4] was 42.02% and the “Percent suppression of elevated cytokine levels, KC” value [2, 4] was 60.10%. For the same compound, the “Percent suppression of elevated cytokine levels, LIF” value [2, 4] was 47.18%, the “Percent suppression of elevated cytokine levels, MCP-1” value [2, 4] was 57.29% and the “Percent suppression of elevated cytokine levels, MIG” value [2, 4] was −0.29%. The “Percent suppression of elevated cytokine levels, MIP-1α” value [2, 4] was 47.13%, the “Percent suppression of elevated cytokine levels, MIP-1β” value [2, 4] was 34.67% and the “Percent suppression of elevated cytokine levels, MIP-2” value [2, 4] was 37.57%. The “Percent suppression of elevated cytokine levels, RANTES” value [2, 4] was 37.87%, the “Percent suppression of elevated cytokine levels, TNF-α” value [2, 4] was 51.43% and the “Percent suppression of elevated cytokine levels, VEGF” value [2, 4] was 75.98%. For the same compound, the “Percent suppression of elevated cytokine levels, AVERAGE SUPPRESSION” value ([2]; 0.01 mg dexamethasone in MCT oil, average of 24 cytokines) was 37.59%, the “decrease in the cytokine expression levels (average)” value ([2]; 0.01 mg per mouse) was 37.59% and the inhibition at 2 µM [3] was 51%.
